According to patent US9096607B2, “Tumor necrosis factor inhibitors” (THE TRUSTEES OF THE UNIVERSITY OF PENNSYLVANIA, priority 2005, dated 2015):

Columns and labels:
[1] = tested on: collagen induced arthritis; assay: Collagen induced arthritis in mice; assay type: in vivo, mouse; settings: DBA/1 mice
Method: Activity of compound I-9 was studied in a mouse collagen induced arthritis system, which is a model for human rheumatoid arthritis. Six to eight weeks old male DBA/1 mice were immunized by multiple intradermal injections of 100 μg chicken type II collagen (Sigma Chemical Co., St. Louis, Mo.) in 100 μl of 0.1 M acetic acid emulsified in an equal volume of complete Freund's adjuvant and were then challenged with the same antigen preparation i.p. on the 21st day. Animals were injected daily with the compound I-9 at different dosages (2-4 mg/kg/day) beginning on day 21 and animals were examined physically every other day in a blinded manner. In this model, disease typically develops 7-10 days after the second immunization, and the severity of disease can be determined by physical examination, joint histochemistry, or both techniques. […] Male DBA/1 mice (6-8-wk-old) were purchased from Jackson Laboratory (Bar Harbor, Me.) and housed in University of Pennsylvania Animal Care Facilities. Animals were maintained in accordance with guidelines of Institutional Animal Care and Use Committee (IACUC) of the University of Pennsylvania. For CIA induction, mice were immunized by multiple intradermal injections of 100 μg chicken type II collagen (Sigma Chemical Co., St. Louis, Mo.) in 100 μL of 0.1M acetic acid emulsified in an equal volume of complete Freund's adjuvant. Mice were challenged with the same antigen preparation i.p. at the 21st day. Mice were injected daily with the test compound at different dosage (2 and 4 mg/kg of body weight) from day 21. Disease develops 7-10 day after the second immunization. Mice were examined physically every other day in a blind manner. Their paws were scored individually as follows: 0=normal; 1=Erythema and mild swelling confined to the ankle joint or toes; 2=Erythema and mild swelling extending from the ankle to the midfoot or ankle joint; 3=Erythema and moderate swelling extending from the ankle to the metatarsal joints; and 4=Erythema and severe swelling encompass the ankle, foot, and digits. The maximum disease score per foot is 4, and the maximum disease score per mouse is 16. For histological examination of the joint, mice were killed at different time points, and their paws were collected and fixed in 10% formalin. The paws were then decalcified in hydrochloric acid, embedded in paraffin, sectioned, and stained with hematoxylin and eosin (H&E).

L929 cells = assay: Inhibition of TNF-α mediated cytolysis of L929 cells (Alamar Blue); assay type: cell-based, murine; settings: TNF-α 100 pg/mL, actinomycin D 1 μM
From the text: L929 cultured murine fibroblasts cells were obtained from American Type Culture Collection (Manassas, Va.). Tissue culture reagents were from Invitrogen or Sigma-Aldrich. TNF-α and Actinomycin D were from Sigma-Aldrich. Alamar Blue reagents (Cell Titer Blue™) were from Promega. The test compounds I-1 through I-16, II-1 through II-8, and III-1 through III-3 were obtained commercially or can be prepared as described above. The test compounds were individually dissolved in dimethylsulfoxide (DMSO). The test compounds were maintained at 4° C. when not in use. Other reagents were high-purity (ACS-grade, HPLC-grade, MilliQ water, or similar).
Stock L929 cells were grown on tissue culture plastic in complete DMEM (Dulbecco's Modified Eagles Medium) supplemented with 10% FBS (Fetal Bovine Serum), NEAA (non-essential amino acids), and glutamine. L929 cells were plated using the same medium on 96-well tissue culture plates at high density (i.e., ˜4×10^4 cells/well, or similar) before use.
Approximately 20 h after plating, the L929 cells on 96-well plates were re-fed with fresh medium containing one of the test compounds in a concentration selected from 100 μM, 50 μM, 25 μM as a “pre-treatment.” Approximately 30-60 min later, samples were treated with an additional amount of test compound (in the same amount and at the same concentration as the pre-treatment) prepared in medium containing TNF-α (200 pg/mL), and actinomycin D (2 μM). The final concentration of TNF-α in assays was 100 pg/mL. The final concentration of actinomycin D in assays was 1 μM. The plates were incubated for an additional 22-23 h, the Alamar Blue assay reagents were added and metabolic cell viability was determined from reduction of a fluorogenic Alamar Blue derivative.
The temperature was maintained at 37° C. with 5% CO2 and humidified. The metabolic viability was measured 1-2 h after addition of assay reagents/Alamar Blue derivative using TECAN SaFire fluorescence plate reader (Tecan Group Ltd., Maennedorf, Switzerland).
Inhibition of TNF-α induced cytolysis by a test compound (X) at a given concentration (y) was calculated as follows: […]

[2] = tested on: EGF-signaling in NE91 cells; assay: Effect on EGF-signaling in NE91 cells (western blot); assay type: cell-based; settings: 2 hr treatment, EGF 100 ng/mL
Method: To verify the effects of I-9 were specific to TNF-α signaling, the effect of I-9 on EGF-signaling was tested in NE91 cells (American Type Culture Collection, Manassas, Va.). NE91 cells were cultured in RPMI medium containing 10% FBS in 6-well plate at the density of 1×10^6/well for 12 hr, followed by 2 hr treatment with or without I-9. Cells were then stimulated with EGF at 100 ng/mL for the indicated time. Cells were then lysed and analyzed by western blotting in the same manner as described above for analysis of TNF-α signaling in L929 cells.

For CC(=O)Oc1ccc(C(C)(c2ccc(OC(C)=O)cc2)c2ccc(OC(C)=O)cc2)cc1 [Compound I-9, 1,1,1-Tris-(4-acetoxyphenyl)ethane], the “clinical symptoms of arthritis” value ([1]; 2-4 mg/kg/day daily from day 21, vs untreated or control groups) was “dose dependent decrease”, the cartilage destruction ([1]; treated) was “prevented” and the “infiltration, histological analysis of ankle joints” value ([1]; treated) was “markedly reduced”. For the same compound, the “synovial tissue, histological analysis of ankle joints” value ([1]; treated) was “less synovial tissue”, the “% Inhibition at: 25 μM” value (L929 cells; 25 μM compound) was 37.2% and the “% Inhibition at: 50 μM” value (L929 cells; 50 μM compound) was 65.2%. The “% Inhibition at: 100μM” value (L929 cells; 100 μM compound) was 50.9% and the “changes in EGF-induced signaling” value [2] was “failed to induce changes”.
